From patent US10981917B2, “Heterocyclic compound, its preparation method, and pharmaceutical composition comprising the same” (Daewoong Pharmaceutical Co., Ltd., priority 2017, dated 2021)

What follows are compounds tested against PRS (prolyl-tRNA synthetase) protein, PRS portion of EPRS (Homo sapiens (Human), UniProt P07814) (assay: PRS enzyme activity inhibition experiment ([3H]proline, liquid scintillation)). Settings: purified PRS protein, 37° C. for 5 to 10 minutes.
Assay type: biochemical
In short: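 Values are % inhibition or IC50 ranges (A ≤100 nM, B 100–500 nM, C ≥500 nM) from [3H]proline incorporation measured by liquid scintillation. PRS portion of human EPRS, reacted 5–10 min at 37 °C in pH 7.4 phosphate buffer containing 5 mM ATP and tRNA, compound at 1 μM.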

Chain of PRS (prolyl-tRNA synthetase) protein, PRS portion of EPRS (P07814 1007-1512): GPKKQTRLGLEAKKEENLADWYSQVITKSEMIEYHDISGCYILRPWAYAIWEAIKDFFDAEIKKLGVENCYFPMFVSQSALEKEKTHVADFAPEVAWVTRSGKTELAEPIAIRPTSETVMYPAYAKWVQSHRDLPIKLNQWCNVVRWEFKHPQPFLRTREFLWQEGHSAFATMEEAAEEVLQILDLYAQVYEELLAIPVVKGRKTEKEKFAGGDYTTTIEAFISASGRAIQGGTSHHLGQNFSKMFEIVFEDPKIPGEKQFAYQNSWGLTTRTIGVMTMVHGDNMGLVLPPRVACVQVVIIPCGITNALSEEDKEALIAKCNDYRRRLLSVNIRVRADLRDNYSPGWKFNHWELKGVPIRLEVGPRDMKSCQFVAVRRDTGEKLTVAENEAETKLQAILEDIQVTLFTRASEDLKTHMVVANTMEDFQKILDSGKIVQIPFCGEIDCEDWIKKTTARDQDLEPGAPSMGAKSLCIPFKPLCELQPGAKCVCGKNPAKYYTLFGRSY

Row | SMILES | IC50 [nM]
1 | O[C@H]1CCCN[C@@H]1/C=C/Cn1cnc2c(Cl)c(Cl)cnc21 [Example 189, (2R,3S)-2-((E)-3-(6,7-dichloro-3H-imidazo[4,5-b]pyridin-3-yl)prop-1-en-1-yl)piperidin-3-ol] | 100 to 500
2 | O[C@H]1CCCN[C@@H]1/C=C/Cn1cnc2ccc(-c3cccc(Cl)c3)cc21 [Example 190, (2R,3S)-2-((E)-3-(6-(3-chlorophenyl)-1H-benzo[d]imidazol-1-yl)prop-1-en-1-yl)piperidin-3-ol] | 100 to 500
3 | O[C@H]1CCCN[C@@H]1/C=C/Cn1cnc2ccc(-c3cccc(F)c3)cc21 [Example 191, (2R,3S)-2-((E)-3-(6-(3-fluorophenyl)-1H-benzo[d]imidazol-1-yl)prop-1-en-1-yl)piperidin-3-ol] | 100 to 500
4 | O[C@H]1CCCN[C@@H]1/C=C/Cn1cnc2ccc(-c3cccc(C(F)(F)F)c3)cc21 [Example 192, (2R,3S)-2-((E)-3-(6-(3-(trifluoromethyl)phenyl)-1H-benzo[d]imidazol-1-yl)prop-1-enyl)piperidin-3-ol] | 100 to 500
5 | Cc1nc2cc(Br)c(F)c(F)c2n1C/C=C/[C@H]1NCCC[C@@H]1O [Example 193, (2R,3S)-2-((E)-3-(5-bromo-6,7-difluoro-2-methyl-1H-benzo[d]imidazol-1-yl)prop-1-en-1-yl)piperidin-3-ol] | ≥ 500
6 | O[C@H]1CCCN[C@@H]1/C=C/CN1CCc2ccccc21 [Example 194, (2R,3S)-2-((E)-3-(indolin-1-yl)prop-1-en-1-yl)piperidin-3-ol] | ≥ 500
7 | O[C@H]1CCCN[C@@H]1/C=C/CN1CCc2cc(Cl)ccc21 [Example 195, (2R,3S)-2-((E)-3-(5-chloroindolin-1-yl)prop-1-en-1-yl)piperidin-3-ol] | ≥ 500
8 | O[C@H]1CCCN[C@@H]1/C=C/Cn1ccc2cccnc21 [Example 196, (2R,3S)-2-((E)-3-(1H-pyrrolo[2,3-b]pyridin-1-yl)prop-1-en-1-yl)piperidin-3-ol] | ≥ 500
9 | O[C@H]1CCCN[C@@H]1/C=C/Cn1ccc2ccc(Cl)cc21 [Example 197, (2R,3S)-2-((E)-3-(6-chloro-1H-indol-1-yl)prop-1-en-1-yl)piperidin-3-ol] | ≥ 500
10 | O[C@H]1CCCN[C@@H]1/C=C/Cn1ncc2ccc(Cl)cc21 [Example 198, (2R,3S)-2-((E)-3-(6-chloro-1H-indazol-1-yl)prop-1-en-1-yl)piperidin-3-ol] | ≥ 500
11 | O[C@H]1CCCN[C@@H]1/C=C/Cn1ccc2c(Cl)ncnc21 [Example 199, (2R,3S)-2-((E)-3-(4-chloro-7H-pyrrolo[2,3-d]pyrimidin-7-yl)prop-1-en-1-yl)piperidin-3-ol] | ≥ 500
12 | O[C@H]1CCCN[C@@H]1/C=C/Cn1ncc2cc(Cl)cnc21 [Example 200, (2R,3S)-2-((E)-3-(5-chloro-1H-pyrazolo[3,4-b]pyridin-1-yl)prop-1-en-1-yl)piperidin-3-ol] | ≥ 500
13 | Cc1ccc2c(c1)c(C)nn2C/C=C/[C@H]1NCCC[C@@H]1O [Example 201, (2R,3S)-2-((E)-3-(3,5-dimethyl-1H-indazol-1-yl)prop-1-en-1-yl)piperidin-3-ol] | ≥ 500
14 | COC(=O)c1cn(C/C=C/[C@H]2NCCC[C@@H]2O)c2c(Br)cccc12 [Example 202, methyl 7-bromo-1-((E)-3-((2R,3S)-3-hydroxypiperidin-2-yl)allyl)-1H-indole-3-carboxylate] | 100 to 500
15 | O=C(O)c1cn(C/C=C/[C@H]2NCCC[C@@H]2O)c2c(Br)cccc12 [Example 203, 7-bromo-1-((E)-3-((2R,3S)-3-hydroxypiperidin-2-yl)allyl)-1H-indole-3-carboxylic acid] | ≥ 500
16 | O=C(O)c1cn(C/C=C/[C@H]2NCCC[C@@H]2O)c2ccc(Br)cc12 [Example 204, 5-bromo-1-((E)-3-((2R,3S)-3-hydroxypiperidin-2-yl)allyl)-1H-indole-3-carboxylic acid] | ≥ 500
17 | O=C(O)c1cn(C/C=C/[C@H]2NCCC[C@@H]2O)c2cccc(Cl)c12 [Example 205, 4-chloro-1-((E)-3-((2R,3S)-3-hydroxypiperidin-2-yl)allyl)-1H-indole-3-carboxylic acid] | ≥ 500
18 | O=C(O)c1cn(C/C=C/[C@H]2NCCC[C@@H]2O)c2cc(Cl)ccc12 [Example 206, 6-chloro-1-((E)-3-((2R,3S)-3-hydroxypiperidin-2-yl)allyl)-1H-indole-3-carboxylic acid] | ≥ 500
19 | O=C(O)c1cn(C/C=C/[C@H]2NCCC[C@@H]2O)c2c(Cl)cccc12 [Example 207, 7-chloro-1-((E)-3-((2R,3S)-3-hydroxypiperidin-2-yl)allyl)-1H-indole-3-carboxylic acid] | ≥ 500
20 | O=C(O)c1cn(C/C=C/[C@H]2NCCC[C@@H]2O)c2cc(F)ccc12 [Example 208, 6-fluoro-1-((E)-3-((2R,3S)-3-hydroxypiperidin-2-yl)allyl)-1H-indole-3-carboxylic acid] | ≥ 500

Row | SMILES | IC50 [nM]
21 | O=C(O)c1cn(C/C=C/[C@H]2NCCC[C@@H]2O)c2ccccc12 [Example 209, 1-((E)-3-((2R,3S)-3-hydroxypiperidin-2-yl)allyl)-1H-indole-3-carboxylic acid] | ≥ 500
22 | COC(=O)c1cn(C/C=C/[C@H]2NCCC[C@@H]2O)c2cccc(Cl)c12 [Example 210, methyl 4-chloro-1-((E)-3-((2R,3S)-3-hydroxypiperidin-2-yl)allyl)-1H-indole-3-carboxylate] | ≥ 500
23 | COC(=O)c1cn(C/C=C/[C@H]2NCCC[C@@H]2O)c2cc(Cl)ccc12 [Example 211, methyl 6-chloro-1-((E)-3-((2R,3S)-3-hydroxypiperidin-2-yl)allyl)-1H-indole-3-carboxylate] | ≥ 500
24 | COC(=O)c1cn(C/C=C/[C@H]2NCCC[C@@H]2O)c2c(Cl)cccc12 [Example 212, methyl 7-chloro-1-((E)-3-((2R,3S)-3-hydroxypiperidin-2-yl)allyl)-1H-indole-3-carboxylate] | ≥ 500
25 | COC(=O)c1cn(C/C=C/[C@H]2NCCC[C@@H]2O)c2ccc(Br)cc12 [Example 213, methyl 5-bromo-1-((E)-3-((2R,3S)-3-hydroxypiperidin-2-yl)allyl)-1H-indole-3-carboxylate] | ≥ 500
26 | COC(=O)c1cn(C/C=C/[C@H]2NCCC[C@@H]2O)c2cc(Br)ccc12 [Example 214, methyl 6-bromo-1-((E)-3-((2R,3S)-3-hydroxypiperidin-2-yl)allyl)-1H-indole-3-carboxylate] | 100 to 500
27 | CNC(=O)c1cn(C/C=C/[C@H]2NCCC[C@@H]2O)c2ccc(Br)cc12 [Example 215, 5-bromo-1-((E)-3-((2R,3S)-3-hydroxypiperidin-2-yl)allyl)-N-methyl-1H-indole-3-carboxamide] | ≥ 500
28 | CN(C)C(=O)c1cn(C/C=C/[C@H]2NCCC[C@@H]2O)c2ccc(Br)cc12 [Example 216, 5-bromo-1-((E)-3-((2R,3S)-3-hydroxypiperidin-2-yl)allyl)-N,N-dimethyl-1H-indole-3-carboxamide] | ≥ 500
29 | Cc1c(Cl)ccc2c1ncn2C/C(F)=C/[C@H]1NCCC[C@@H]1O [Example 217, (2R,3S)-2-((Z)-3-(5-chloro-4-methyl-1H-benzo[d]imidazol-1-yl)-2-fluoroprop-1-enyl)piperidin-3-ol] | ≥ 500
30 | Cc1c(Br)ccc2c1ncn2C/C(F)=C/[C@H]1NCCC[C@@H]1O [Example 218, (2R,3S)-2-((Z)-3-(5-bromo-4-methyl-1H-benzo[d]imidazol-1-yl)-2-fluoroprop-1-en-1-yl)piperidin-3-ol] | ≥ 500
31 | O[C@H]1CCCN[C@@H]1/C=C(\F)Cn1cnc2cc(Cl)c(Cl)cc21 [Example 219, (2R,3S)-2-((Z)-3-(5,6-dichloro-1H-benzo[d]imidazol-1-yl)-2-fluoroprop-1-en-1-yl)piperidin-3-ol] | ≥ 500
32 | OCc1nc2cc(Cl)c(Cl)cc2n1C/C(F)=C/[C@H]1NCCC[C@@H]1O [Example 220, (2R,3S)-2-((Z)-3-(5,6-dichloro-2-(hydroxymethyl)-1H-benzo[d]imidazol-1-yl)-2-fluoroprop-1-en-1-yl)piperidin-3-ol] | ≥ 500
33 | C/C(=C\[C@H]1NCCC[C@@H]1O)Cn1cnc2c(C)c(Cl)ccc21 [Example 221, (2R,3S)-2-((E)-3-(5-chloro-4-methyl-1H-benzo[d]imidazol-1-yl)-2-methylprop-1-en-1-yl)piperidin-3-ol] | ≥ 500
34 | C/C(=C\[C@H]1NCCC[C@@H]1O)Cn1cnc2c(C)c(Br)ccc21 [Example 222, (2R,3S)-2-((E)-3-(5-bromo-4-methyl-1H-benzo[d]imidazol-1-yl)-2-methylprop-1-en-1-yl)piperidin-3-ol] | ≥ 500
35 | C/C(=C\[C@H]1NCCC[C@@H]1O)Cn1cnc2cc(Cl)c(Cl)cc21 [Example 223, (2R,3S)-2-((E)-3-(5,6-dichloro-1H-benzo[d]imidazol-1-yl)-2-methylprop-1-en-1-yl)piperidin-3-ol] | ≥ 500
36 | C/C(=C\[C@H]1NCCC[C@@H]1O)Cn1c(CO)nc2cc(Cl)c(Cl)cc21 [Example 224, (2R,3S)-2-((E)-3-(5,6-dichloro-2-(hydroxymethyl)-1H-benzo[d]imidazol-1-yl)-2-methylprop-1-en-1-yl)piperidin-3-ol] | ≥ 500
37 | O[C@H]1CCCN[C@@H]1C#CCn1cnc2cc(Cl)c(Cl)cc21 [Example 225, (2R,3S)-2-(3-(5,6-dichloro-1H-benzo[d]imidazol-1-yl)prop-1-yn-1-yl)piperidin-3-ol] | ≥ 500
38 | Cc1c(Br)ccc2c1ncn2CC#C[C@H]1NCCC[C@@H]1O [Example 226, (2R,3S)-2-(3-(5-bromo-4-methyl-1H-benzo[d]imidazol-1-yl)prop-1-yn-1-yl)piperidin-3-ol] | ≥ 500
39 | Cc1c(Cl)ccc2c1ncn2CC#C[C@H]1NCCC[C@@H]1O [Example 227, (2R,3S)-2-(3-(5-chloro-4-methyl-1H-benzo[d]imidazol-1-yl)prop-1-yn-1-yl)piperidin-3-ol] | ≥ 500
